# Measured values reported in patent US6726919B2, “Injectable dispersion of propofol” (RTP Pharma, Inc., priority 2000, dated 2004).
# Counter-ions that a name gives are not always drawn. Like-named read-outs stand apart in the source and are kept apart here.
# System: human whole blood
# Type: cell-based
# Conditions: both, 1 h
# Protocol: In-vitro evaluation of the hemolytic influence of the preparations of this invention on human whole blood is determined as a further guide to selecting formulations with a low tendency to produce irritation around the site of injection. The hemolytic potential of a formulation on blood is evaluated by an assay of erythrocyte cytoplasmic marker enzyme, lactate dehydrogenase (LDH) which escapes from the leaky or ruptured erythrocytes into the plasma compartment of the blood. For the assay, blood is obtained from male or female Caucasian human volunteers of 18 to 65 years of age and stabilized with sodium heparin. A test formulation is mixed with an equal volume of human whole blood and incubated at 37° C. for about 1 hour. The mixture is then held at ambient temperature for 30 minutes followed by centrifugation at 1500 rpm for 10 min. The level of LDH in the supernatant is determined according to protocols known in the art. An upper limit titre is determined by measuring the LDH levels resulting from hemolysis by amiodarone hydrochloride, a compound known to result in vein irritation upon venous injection in clinical settings (PDR 1999, p. 3289). Amiodarone hydrochloride IV solution, when tested at 50 mg/mL and after dilution with 5% aqueous dextrose to 1.8 mg/mL can result in LDH values of about 8000 IU/L and about 700 IU/L, respectively.
smiles,measurement,setting,value
"CCCCc1oc2ccccc2c1C(=O)c1cc(I)c(OCCN(CC)CC)c(I)c1 [Amiodarone hydrochloride, amiodarone hydrochloride]",LDH values,1.8 mg/mL,about 700 IU/L
same,LDH values,50 mg/mL,about 8000 IU/L
